Reference: article PMC4390550 (Journal of the American Chemical Society, 2015)
Where a name gives a salt, the structure may show the parent alone.

Experiments:
GABA-AT [1] = details: aromatization mechanism; cited from earlier work
[2] = test system: aspartate aminotransferase; details: cited from earlier work
alanine aminotransferase = details: cited from earlier work
infantile spasms = details: cited from earlier work
GABA-AT [3] = target: T1, GABA-AT (Sus scrofa, UniProt P80147); test: Time-dependent inhibition; format: biochemical, pig; details: preliminary in vitro results
T1 sequence (P80147 29-500): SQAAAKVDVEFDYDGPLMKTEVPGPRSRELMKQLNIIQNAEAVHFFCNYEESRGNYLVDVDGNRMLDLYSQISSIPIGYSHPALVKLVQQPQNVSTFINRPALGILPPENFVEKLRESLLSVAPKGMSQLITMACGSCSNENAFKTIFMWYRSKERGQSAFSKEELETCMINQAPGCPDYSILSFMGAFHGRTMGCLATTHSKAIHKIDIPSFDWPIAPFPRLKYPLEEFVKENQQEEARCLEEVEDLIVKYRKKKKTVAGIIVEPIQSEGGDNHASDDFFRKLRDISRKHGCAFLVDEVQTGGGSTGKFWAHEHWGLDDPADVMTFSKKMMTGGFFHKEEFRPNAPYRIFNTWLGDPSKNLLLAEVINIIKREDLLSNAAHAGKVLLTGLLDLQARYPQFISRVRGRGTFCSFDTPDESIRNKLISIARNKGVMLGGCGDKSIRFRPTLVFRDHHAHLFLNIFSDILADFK

GABA-AT [4] = target: T1, GABA-AT; test: Inhibition of GABA-AT, coupled assay with SSDH, Ki by Cheng-Prusoff; format: biochemical, pig

N[C@H]1C=C(C(=O)O)SC1 [(S)-4-Amino-4,5-dihydro-2-thiophenecarboxylic acid]
inactivation of GABA-AT (in words) (GABA-AT [1]): known inactivator
inactivation of aspartate aminotransferase (in words) [2]: inactivator

N[C@H]1C[C@@H](C(=O)O)CC1=C(F)F [Compound 16]
inactivation or inhibition of alanine aminotransferase (alanine aminotransferase): did not inactivate or inhibit
inactivation or inhibition of aspartate aminotransferase [2]: did not inactivate or inhibit
margin of safety (infantile spasms; compared with vigabatrin): much larger margin of safety than vigabatrin
doses that suppressed spasms (infantile spasms; rat): 0.1 to 1 mg/kg/day
effective doses lower than those for vigabatrin (infantile spasms; rat): > 100 fold
time spasms suppression stayed effective (infantile spasms; rat): 3 days

Cl.N[C@@H]1CS[C@H](C(=O)O)C1 [Compound 17, (2S,4S)-4-Aminotetrahydrothiophene-2-carboxylic acid hydrochloride]
inactivation of GABA-AT (in words) (GABA-AT [3]): potent inactivators

Cl.N[C@@H]1CS[C@@H](C(=O)O)C1 [Compound 18, (2R,4S)-4-Aminotetrahydrothiophene-2-carboxylic acid hydrochloride]
inactivation of GABA-AT (in words) (GABA-AT [3]): potent inactivators

N[C@H]1CC(C(=O)O)S(=O)(=O)C1 (stereo partly drawn) [Compound 19, (4S)-4-Aminotetrahydrothiophene-2-carboxylic acid 1,1-dioxide hydrochloride]
Ki (GABA-AT [4]; reversible inhibition, pH 8.5, 25 °C, 10 mM GABA): 3.2 ± 0.7 mM

N[C@@H]1CC[C@H](C(=O)O)C1 [Compound 39, (1S,3R)-3-aminocyclopentane-1-carboxylic acid]
inactivation of GABA-AT (in words) (GABA-AT [3]): not an inactivator
reversible inhibition of GABA-AT (in words) (GABA-AT [4]; preliminary in vitro results): good competitive inhibitor

C=CC(N)CCC(=O)O (centres unmarked) [vigabatrin]
time spasms suppression stayed effective (infantile spasms; rat): 1 days
